Publication PMC3819306, “Exploring the Binding Nature of Pyrrolidine Pocket-Dependent Interactions in the Polo-Box Domain of Polo-Like Kinase 1” (PLoS ONE, 2013)
Where two headings read alike, the source gives them in different places. Where a SMILES comes first, the peptide text is derived from it.

Tests used:
[1] = biological target: T1, Plk1 PBD (Homo sapiens, UniProt P53350); parameters: method as in PMID 19597481; details: cited from earlier work
T1 construct: Mitotic 293A lysates expressing HA-EGFP-Plk1 were prepared in the TBSN buffer; expressed in transfected cells; host or cells: 293A cells, mitotic lysate

[2] = biological target: T2, PBD of Plk1 (Homo sapiens, UniProt P53350); assay: Fluorescence polarization assay, Plk1 PBD; type: binding; details: 25 nM 5-carboxyfluorescein-DPPLHSpTAI-OH, Figure 8, read-out: IC50 PBD1
T2 construct: The Plk1 PBD protein (residues 371−603) was purified as previously described; made in house
Method: Fluorescein-labeled peptides (5-carboxyfluorescein-DPPLHSpTAI-OH, final concentration: 25 nM) were incubated with the PBDs of Plk1, Plk2, and Plk3, respectively (final concentrations of buffer components: 10 mM Tris [pH 8.0], 1 mM EDTA, 50 mM NaCl, and 0.01% Nonidet P-40). Fluorescence polarization was analyzed 10 min after mixing all components in the 384-well format using a Molecular Devides SpectraMax Paradigm Multi-Mode Microplate Detection Platform. All experiments were performed in triplicate.

[3] = biological target: T1, Plk1 PBD; assay: ELISA-based Plk1 PBD-binding inhibition assay
Method: The wells were washed once with PBS + 0.05% Tween 20 (PBST), and incubated with 200 µl of PBS + 1% BSA (blocking buffer) for 1 h to prevent the unoccupied sites. […] Next, the plates were washed four times with PBST, and to detect the bound HA-EGFP-Plk1, the plates were incubated for 2 h with 100 µL/well of anti-HA antibody at a concentration of 0.5 µg/mL in the blocking buffer, and then the plates were washed five times. Furthermore, the plates were incubated with 100 µL/well of secondary antibody at a 1:1,000 dilution in the blocking buffer. Afterward, the plates were washed five times with PBST and incubated with 100 µL/well of 3,3′,5,5′-tetramethylbenzidine (TMB) substrate solution (Sigma, St. Louis, MO) until a desired absorbance was achieved. The reactions were terminated by the addition of 1 N H2SO4, and the optical densities were measured at 450 nm using an ELISA plate reader (Molecular Device, Sunnyvale, CA).

[4] = ELISA-based assay, text values referring to Figure 2, read-out: IC50 (Plk1 PBD binding)
[5] = first-phase N-alkylated Pro derivatives, HA-EGFP-Plk1 from mitotic 293A lysates vs immobilized p-T78 peptide, Figure 2, read-out: IC50 (ELISA-based Plk1 PBD-binding assay, Figure 2B)

T1 sequence (P53350 whole entry): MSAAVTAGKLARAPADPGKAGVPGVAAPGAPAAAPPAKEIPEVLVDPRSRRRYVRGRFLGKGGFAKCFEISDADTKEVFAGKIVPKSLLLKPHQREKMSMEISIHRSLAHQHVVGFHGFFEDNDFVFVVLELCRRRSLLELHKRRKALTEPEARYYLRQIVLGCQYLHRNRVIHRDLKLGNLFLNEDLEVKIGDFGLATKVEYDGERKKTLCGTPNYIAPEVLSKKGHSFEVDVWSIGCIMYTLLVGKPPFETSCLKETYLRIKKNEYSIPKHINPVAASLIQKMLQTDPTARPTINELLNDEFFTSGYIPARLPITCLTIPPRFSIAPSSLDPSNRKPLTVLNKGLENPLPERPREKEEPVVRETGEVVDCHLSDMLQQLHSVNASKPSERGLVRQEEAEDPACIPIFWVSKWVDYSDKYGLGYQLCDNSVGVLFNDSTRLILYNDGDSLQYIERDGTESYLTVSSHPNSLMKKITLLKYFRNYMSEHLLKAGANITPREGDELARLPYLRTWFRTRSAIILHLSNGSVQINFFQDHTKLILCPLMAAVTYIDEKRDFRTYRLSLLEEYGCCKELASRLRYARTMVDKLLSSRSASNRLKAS
T2 sequence (P53350 371-603): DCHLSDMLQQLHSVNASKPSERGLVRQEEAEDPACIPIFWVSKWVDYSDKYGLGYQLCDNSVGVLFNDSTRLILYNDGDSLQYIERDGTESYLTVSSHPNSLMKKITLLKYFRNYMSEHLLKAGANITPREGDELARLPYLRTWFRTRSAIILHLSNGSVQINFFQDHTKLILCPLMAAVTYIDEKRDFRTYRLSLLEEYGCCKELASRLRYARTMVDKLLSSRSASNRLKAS

Compound | IC50 [2] [µM] | IC50 [3, 4] [µM] | IC50 [3, 5] [µM] | further results
LHSpTA | – | – | – | binding to Plk1 PBD compared with PLHSpT [1]: almost as efficiently as the PLHSpT did
CSCC[C@H](NC(=O)[C@@H](NC(=O)[C@H](CO)NC(=O)[C@H](Cc1c[nH]cn1)NC(=O)[C@H](CC(C)C)NC(=O)[C@@H]1CCCN1C(=O)CC12CC3CC(CC(C3)C1)C2)[C@@H](C)OP(=O)(O)O)C(N)=O [PL-55] (HELM PEPTIDE1{[O=C(CC12CC3CC(CC(C3)C1)C2)[*:2]].P.L.H.S.[C[C@@H](OP(=O)(O)O)[C@H](N[*:1])C(=O)[*:2]].M.[am]}$$$$V2.0) | 0.131 | – | – | –
CSCC[C@H](NC(=O)[C@@H](NC(=O)[C@H](CO)NC(=O)[C@H](Cc1c[nH]cn1)NC(=O)[C@H](CC(C)C)NC(=O)[C@@H]1CCCN1CC1CCCCC1)[C@@H](C)OP(=O)(O)O)C(N)=O [PL-49, cyclohexylmethyl-PLHSpTM] (HELM PEPTIDE1{[O=C([C@@H]1CCCN1CC1CCCCC1)[*:2]].L.H.S.[C[C@@H](OP(=O)(O)O)[C@H](N[*:1])C(=O)[*:2]].M.[am]}$$$$V2.0) | – | 0.36 | 0.41 | –
CSCC[C@H](NC(=O)[C@@H](NC(=O)[C@H](CO)NC(=O)[C@H](Cc1c[nH]cn1)NC(=O)[C@H](CC(C)C)NC(=O)[C@@H]1CCCN1C(=O)CC1CCCCC1)[C@@H](C)OP(=O)(O)O)C(N)=O [PL-57] (HELM PEPTIDE1{[O=C(CC1CCCCC1)[*:2]].P.L.H.S.[C[C@@H](OP(=O)(O)O)[C@H](N[*:1])C(=O)[*:2]].M.[am]}$$$$V2.0) | – | – | – | IC50 ([3]; first-phase N-acylated cyclohexyl analogues, values printed in picture of Figure 4, read-out: IC50 (ELISA-based Plk1 PBD-binding assay, Figure 4B)): 0.52 µM
COc1cc(CN2CCC[C@H]2C(=O)N[C@@H](CC(C)C)C(=O)N[C@@H](Cc2c[nH]cn2)C(=O)N[C@@H](CO)C(=O)N[C@H](C(=O)N[C@@H](CCSC)C(N)=O)[C@@H](C)OP(=O)(O)O)cc(OC)c1OC [PL-42, (MeO)3PhCH2PLHSpTM] (HELM PEPTIDE1{[COc1cc(CN2CCC[C@H]2C(=O)[*:2])cc(OC)c1OC].L.H.S.[C[C@@H](OP(=O)(O)O)[C@H](N[*:1])C(=O)[*:2]].M.[am]}$$$$V2.0) | 0.522 | 1.48 | 1.64 | –
CSCC[C@H](NC(=O)[C@@H](NC(=O)[C@H](CO)NC(=O)[C@H](Cc1c[nH]cn1)NC(=O)[C@H](CC(C)C)NC(=O)[C@@H]1CCCN1Cc1cc2c(cc1Cl)OCO2)[C@@H](C)OP(=O)(O)O)C(N)=O [PL-43] (HELM PEPTIDE1{[O=C([C@@H]1CCCN1Cc1cc2c(cc1Cl)OCO2)[*:2]].L.H.S.[C[C@@H](OP(=O)(O)O)[C@H](N[*:1])C(=O)[*:2]].M.[am]}$$$$V2.0) | – | – | 4.47 | –
